US8961924B2, “Metal complexes” (University of Zurich, priority 2008, dated 2015)

Test: Model experiments with 99Tc complex kept at pH 1
Type: physicochemical
Conditions: complex with 99Tc; kept at pH 1 for days

For `[O]=[Tc]12(=[O])(=[O])[N]3CC[N]1CC[N]2CC3` [Compound 1, [TcO3(tacn)]^+], the “hydrolysis at pH 1” value was “without significant hydrolysis”.
